# Data reported in patent US20040034104A1, “2,2-Diphenylbutanamide derivatives and medicines containing the same” (priority 2000, published 2004).
# System: opioid receptor (μ-opioid)
# Experiment: Opioid receptor agonist activity in guinea pig ileum longitudinal muscle specimens
# Details: agonist activity relative to DAMGO (=1.0); ileum longitudinal muscle specimens with Auerbach's plexus; method of Oka et al.
# Experimental: Hartley male guinea pigs (body weight: about 500 g) wer employed. The ileum (15-30 cm) was removed from the ileocecum of each guinea pig, to thereby prepare longitudinal muscle specimens having Auerbach's plexus. Opioid receptor activity of the test drugs was measured through a method proposed by Oka et al. (Eur. J. Pharmacol., 77; 137-141, 1982). Agonist activity is represented by the efficacy relative to the activity of DAMGO ([D-Ala^2, N-MePhe^4, Gly^5-ol]-enkephalin), which is a selective μ-opioid agonist.
row,Structure (SMILES),Relative potency
1,"CN(C)C(=O)C(CCN1CCN(c2ccccc2O)CC1)(c1ccccc1)c1ccccc1 [Compound No. 36, 4-[4-(2-Hydroxyphenyl)piperazin-1-yl]-N,N-dimethyl-2,2-diphenylbutanamide]",10
2,"CN(C)C(=O)C(CCN1CCN(c2ccccc2OCCO)CC1)(c1ccccc1)c1ccccc1 [Compound No. 43, 4-[4-[2-(2-hydroxyethoxy)phenyl]piperazin-1-yl]-N,N-dimethyl-2,2-diphenylbutanamide]",20
3,"CN(C)C(=O)C(CCN1CCC(c2ccccc2OCCO)CC1)(c1ccccc1)c1ccccc1 [Compound No. 69, 4-[4-[2-(2-hydroxyethoxy)phenyl]piperidin-1-yl]-N,N-dimethyl-2,2-diphenylbutanamide]",10
4,"C[C@@H](NC(=O)[C@@H](N)Cc1ccc(O)cc1)C(=O)NCC(=O)N(C)[C@@H](Cc1ccccc1)C(=O)NCCO [DAMGO, [D-Ala^2, N-MePhe^4, Gly^5-ol]-enkephalin, reference compound]",1.0
5,CN(C)C(=O)C(CCN1CCN(c2ccccc2OCC(=O)O)CC1)(c1ccccc1)c1ccccc1 [compound 45],20

# System: not given
# Experiment: not given
# Details: not given
row,melting point [°C],Structure (SMILES)
1,202,CN(C)C(=O)C(CCN1CCC(c2ccccc2OCC(=O)O)CC1)(c1ccccc1)c1ccccc1
2,147,CCOC(=O)COc1ccccc1C1=CCN(CCC(C(=O)N(C)C)(c2ccccc2)c2ccccc2)CC1
3,135,CN(C)C(=O)C(CCN1CC=C(c2ccccc2OCC(=O)O)CC1)(c1ccccc1)c1ccccc1
4,239,O=C(O)COc1ccccc1C1CCN(CCC(C(=O)N2CCCC2)(c2ccccc2)c2ccccc2)CC1
5,156 to 158,CN(C)C(=O)C(CCN1CCC(c2ccccc2OC(C)(C)C(=O)O)CC1)(c1ccccc1)c1ccccc1
